From patent publication US20140088063A1, “AGENTS FOR TREATING NEURODEGENERATIVE DISORDERS” (priority 2010, published 2014)
Marks after values point to notes of the source that are not given here.

What was measured:
male white rats [1] = assay: Behavioral despair test (forced swimming); type: in vivo; conditions: 3 h
Experimental: This behavior reflects a state of despair which can be reduced by several agents which are therapeutically effective in human depression.
(§1) The male white rats (250-280 g) were treated intraperitoneally according to procedure described below. The animals were divided into five groups of ten rats and treated as follows. The rats of first group were used as controls. They were injected intraperitoneally with distilled water 24 h, 3 h, 40 minutes before the experiment. Second group was treated with Compound I′ at a dose 100 mg/kg i.p. 24 h, 3 h, 40 minutes before the experiment. Third group was treated with Amitriptyline at a dose 10 mg/kg i.p. using the same regimen as in groups above.
The antidepressant activity was assessed by estimating immobility time as a period in which animal remains immobile during swimming (see Table 2). Statistical data processing was performed using “BioStat” tool for Windows.

male white rats [2] = assay: Modified behavioral despair test (water wheel); type: in vivo; conditions: 3 h
Experimental: Nomura et al. (1982) published a modification of the despair swim test in mice involving small water wheel set in a water tank. Mice placed on this apparatus turned the wheel vigorously but when they abandoned attempts to escape from the water, the wheel stopped turning. Antidepressant activity of compounds was assessed by counting the number of rotations of the water wheel (see Table 4).
as §1, with “Ia” for “I′”
The antidepressant activity was assessed by estimating immobility time as a period in which animal remains immobile during swimming (see Table 4). Statistical data processing was performed using “BioStat” tool for Windows.

C57BL/6J mice [3] = assay: Toxicity test, median lethal dose after intraperitoneal injection; type: in vivo
Experimental: Toxicity to mammals was measured after intraperitoneal injections of compounds of formula I to C57BL/6J mice. Median lethal dose (LD50) was calculated as described previously (see table 1).

C57BL/6J mice [4] = assay: Black and white box test (light-dark test); type: in vivo; conditions: entries to the light zone; i.p.; percent of control (non-treated animals) taken as 100%
Text: The black and white test (also named light-dark test) is based on the conflict of natural tendencies of rodents to avoid lighted and open areas and to explore novel environments. Relative time spent in exploring each compartment indicates the anxiety level of the animal: Avoidance of the brightly lit area is considered reflecting “anxiety-like” behaviors. When treated with anxiolytic drugs, rodents spend more time in this area, an effect purportedly due to a decrease in anxiety.
The C57BL/6J mice were treated intraperitoneally with compound of the invention, then anxiolytic efficacy of compounds of formula I was assessed by estimating the number of entries to the light zone (see Table 1).

C57BL/6J mice [5] = assay: Learned helplessness test (compound of formula I′); type: in vivo
Experimental: As explained above, the learned helplessness test in mice is the well-known animal model to determine antidepressant efficacy of compounds. Basically when animals learned to be helpless are given antidepressant drugs, they unlearn helplessness and start exerting control over their environment. Antidepressant activity of compounds was assessed by estimating latency time as a period in which animal is not trying to escape from stress (see Table 3). […]

C57BL/6J mice [6] = assay: Learned helplessness test (compounds of formula I); type: in vivo; conditions: percent of control (non-treated animals) taken as 100%; for Latency time, % 1/3 LD50: i.p. dose 1/3 of LD50; for Latency time, % 1/13 LD50: i.p. dose 1/13 of LD50
Experimental: The learned helplessness test in mice is the well-known animal model to determine antidepressant efficacy of compounds. Basically when animals learned to be helpless are given antidepressant drugs, they unlearn helplessness and start exerting control over their environment.
The C57BL/6J mice were treated intraperitoneally with compounds of formula I intraperitoneally at dose corresponding to ⅓ or 1/13 of lethal dose, then antidepressant activity of compounds was assessed by estimating latency time as a period in which animal is not trying to escape from stress (see Table 1).

[7] = acute toxicity, known antidepressants for comparison; cited from earlier work
[8] = 10 mg/kg i.p. 24 h, 40 minutes before the experiment (Fluoxetin as powder)
[9] = 90 mg/kg i.p. once daily, 2 days course
[10] = 90 mg/kg i.p. once daily, 6 days course
[11] = 90 mg/kg i.p. once daily, 12 days course
[12] = 100 mg/kg i.p. 24 h, 40 minutes before the experiment
[13] = 100 mg/kg i.p. three times 24 h, 40 min before experiment

Compound: CN(C)CCC=C1c2ccccc2CCc2ccccc21 [Amitriptyline, reference compound]
- Immobility time (male white rats [1]; [8]): 145.62 ± 45.39 s
- Rotation number (male white rats [2]; [8]): 165.93 ± 35.41

Compound: CNCCC(Oc1ccc(C(F)(F)F)cc1)c1ccccc1 (centres unmarked) [Fluoxetin]
- Immobility time (male white rats [1]; [8]): 337.45 ± 36.69 s
- Immobility time (male white rats [1]; 20 mg/kg 24 h, 40 minutes before the experiment (Fluoxetin as tablet)): 218.45 ± 38.87 s
- Rotation number (male white rats [2]; [8]): 108.34 ± 53.96

Compound: C1CCC2(CC1)NN2CCN1NC12CCCCC2 [Ia, meso-1S,2S,1′R,2′R-1-[2-(1,2-diazaspiro[2.5]oct-1-yl)ethyl]-1,2-diazaspiro[2.5]octane]
- LD50 (C57BL/6J mice [3]): 611 mg/kg
- Number of entries, % (C57BL/6J mice [4]): 56** %
- Latency time (C57BL/6J mice [5]; [9]): 13.6 ± 1.1 s
- Non-escaping animals, % (C57BL/6J mice [5]; [9]): 18** %
- Latency time (C57BL/6J mice [5]; [10]): 7.5 ± 0.9 s
- Non-escaping animals, % (C57BL/6J mice [5]; [10]): 12** %
- Latency time (C57BL/6J mice [5]; [11]): 6.2 ± 0.5 s
- Non-escaping animals, % (C57BL/6J mice [5]; [11]): 1.4** %
- effect of single doses in learned helplessness test (C57BL/6J mice [5]; single dose): not effective
- Latency time, % 1/3 LD50 (C57BL/6J mice [6]): 56** %
- Latency time, % 1/13 LD50 (C57BL/6J mice [6]): 72** %

Compound: CC1(C)NN1CCCCN1NC1(C)C [Ic, meso-1S,2S,1′R,2′R-1-[4-(3,3-dimethyldiaziridin-1-yl)butyl]-3,3-dimethyldiaziridine]
- LD50 (C57BL/6J mice [3]): 1000 mg/kg
- Number of entries, % (C57BL/6J mice [4]): 62** %
- Latency time, % 1/3 LD50 (C57BL/6J mice [6]): 188** %
- Latency time, % 1/13 LD50 (C57BL/6J mice [6]): 104%

Compound: CC1(C)NN1CCN1NC12CCCCC2 [Ie, meso-1S,2S,1′R,2′R-1-[2-(3,3-dimethyldiaziridin-1-yl)ethyl]-1,2-diazaspiro[2.5]octane]
- LD50 (C57BL/6J mice [3]): 1125 mg/kg
- Number of entries, % (C57BL/6J mice [4]): 75** %
- Latency time, % 1/3 LD50 (C57BL/6J mice [6]): 62** %
- Latency time, % 1/13 LD50 (C57BL/6J mice [6]): 74** %

Compound: C1CCC2(C1)NN2CCN1NC12CCCC2 [If, meso-1S,2S,1′R,2′R-1-[2-(1,2-diazaspiro[2.4]hept-1-yl)ethyl]-1,2-diazaspiro[2.4]heptane]
- LD50 (C57BL/6J mice [3]): 1150 mg/kg
- Number of entries, % (C57BL/6J mice [4]): 60** %
- Latency time, % 1/3 LD50 (C57BL/6J mice [6]): 95%
- Latency time, % 1/13 LD50 (C57BL/6J mice [6]): 94%

Compound: [H][N@]1[N@@](CC[N@@]2[N@]([H])C2(C)C)C1(C)C [I′, meso-1S,2S,1′R,2′R-1-[2-(3,3-dimethyldiaziridin-1-yl)ethyl]-3,3-dimethyldiaziridine]
- time after which antidepressive effect was observed (C57BL/6J mice [5]; 90 mg/kg i.p. once daily, earlier than for comparative drugs): 2 days
- Immobility time (male white rats [1]; [12]): 291.55 ± 43.94 s
- antidepressant activity (behavioral despair test) (male white rats [1]; [13]): significant antidepressant activity
- Rotation number (male white rats [2]; [12]): 156.48 ± 26.79
- antidepressant activity (modified behavioral despair test) (male white rats [2]; [13]): significant antidepressant activity

Compound: O=C(CCNNC(=O)c1ccncc1)NCc1ccccc1 [Nyalamidum]
- LD50 [7]: 820 mg/kg

Compound: CN(C)CCCC1(c2ccc(F)cc2)OCc2cc(C#N)ccc21 (centres unmarked) [cypramile]
- LD50 [7]: 1.7 mg/kg

Compound: CN(C)CCCN1c2ccccc2CCc2ccccc21 [melipramine]
- Latency time (C57BL/6J mice [5]; 7 mg/kg i.p., 2 days course): 13.5 ± 1.8 s
- Non-escaping animals, % (C57BL/6J mice [5]; 7 mg/kg i.p., 2 days course): 43%
- Latency time (C57BL/6J mice [5]; 7 mg/kg i.p., 6 days course): 11.8 ± 1.5 s
- Non-escaping animals, % (C57BL/6J mice [5]; 7 mg/kg i.p., 6 days course): 29%
- Latency time (C57BL/6J mice [5]; 7 mg/kg i.p., 12 days course): 9.2 ± 1.1 s
- Non-escaping animals, % (C57BL/6J mice [5]; 7 mg/kg i.p., 12 days course): 11* %

Compound: Cc1ccc2c(c1)c1c3n2CCNC3CCC1 (centres unmarked) [pirazidole]
- Latency time (C57BL/6J mice [5]; 10 mg/kg i.p., 2 days course): 13.6 ± 1.1 s
- Non-escaping animals, % (C57BL/6J mice [5]; 10 mg/kg i.p., 2 days course): 39%
- Latency time (C57BL/6J mice [5]; 10 mg/kg i.p., 6 days course): 10.0 ± 1.4 s
- Non-escaping animals, % (C57BL/6J mice [5]; 10 mg/kg i.p., 6 days course): 18%
- Latency time (C57BL/6J mice [5]; 10 mg/kg i.p., 12 days course): 8.3 ± 0.7 s
- Non-escaping animals, % (C57BL/6J mice [5]; 10 mg/kg i.p., 12 days course): 14* %
